Measurements taken from ChEMBL document CHEMBL1201862, “PubChem BioAssay data set” (2004).
Where a name gives a salt, the structure may show the parent alone. Activity calls are given as the source filed them.

How the values were obtained:
[1] = target: Induced myeloid leukemia cell differentiation protein Mcl-1 (Homo sapiens, UniProt Q07820); experiment: blockers of MCL1 binding to BIM peptide – biochemical, fluorescence polarization, BIM-BH3 peptide, 1536-well, dose response (AID 2217)
[2] = target: Bcl-2-like protein 1 (Homo sapiens, UniProt Q07817); experiment: blockers of BCLXL peptide binding – biochemical, fluorescence polarization, 1536-well, selectivity assay for MCL1 inhibitor project, dose response (AID 2218)
[3] = system: H9c2; experiment: cells; type: functional, cell-based; conditions: Rattus norvegicus, H9c2, Myocardium;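 also: confirmatory concentration-response retest of ultra-high-throughput screening hits for modulation of myocardial damage; cell death induced by hydrogen peroxide oxidative stress; compound pretreatment for 60 min then peroxide exposure for 2 h; potency is for protecting the cells against peroxide damage rather than for killing them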
[4] = NIH3T3 cell viability loss – ATP luminescence, mouse fibroblasts, counter-screen, dose response (AID 2010); type: functional, cell-based;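 also: cells exposed to compound for about 90 hours before reading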
[5] = cells
[6] = Trypanosoma cruzi growth suppression in host cells – NIH3T3 host cells, beta-gal luminescence, confirmation (AID 2044); type: functional, cell-based;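 also: intracellular parasites grown in NIH/3T3 mouse fibroblasts as host cells; luminescent beta-galactosidase reporter signal from transgenic T. cruzi replicating inside host cells; inhibitors lower the luminescence signal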
[7] = target: T1, Heat shock factor protein 1 (Mus musculus, UniProt P38532); experiment: decrease of HSF1-responsive luciferase luminescence – cell-based, NIH3T3, dose retest, confirmation (AID 2382); type: functional;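 also: NIH3T3 fibroblasts with HSF1-driven luciferase reporter stressed by proteasome inhibitor MG132; luminescence from HSF1-driven luciferase expression after 8 hours of MG132 stress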
T1 sequence (P38532 whole entry): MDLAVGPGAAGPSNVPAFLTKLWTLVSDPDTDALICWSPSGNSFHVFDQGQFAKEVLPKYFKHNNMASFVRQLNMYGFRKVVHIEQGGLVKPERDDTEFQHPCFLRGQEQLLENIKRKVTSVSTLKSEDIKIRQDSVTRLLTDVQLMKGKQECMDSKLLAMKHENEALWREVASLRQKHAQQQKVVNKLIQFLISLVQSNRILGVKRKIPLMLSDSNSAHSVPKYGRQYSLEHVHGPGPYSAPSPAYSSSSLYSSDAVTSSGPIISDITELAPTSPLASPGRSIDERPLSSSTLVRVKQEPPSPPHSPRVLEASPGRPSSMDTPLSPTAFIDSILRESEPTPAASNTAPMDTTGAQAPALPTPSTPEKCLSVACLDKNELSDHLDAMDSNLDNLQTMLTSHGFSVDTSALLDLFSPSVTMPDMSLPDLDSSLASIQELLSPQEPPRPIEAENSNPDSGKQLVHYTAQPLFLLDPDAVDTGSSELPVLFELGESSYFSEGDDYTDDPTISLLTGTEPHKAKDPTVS

[8] = target: T2, COUP transcription factor 2 (Homo sapiens, UniProt P24468); experiment: Luminescence-based cell-based high throughput dose response assay to identify inhibitors of COUP-TFII (NR2F2).; type: functional;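 also: HEK293 cells transiently cotransfected with COUP-TFII expression vector and reporter; luciferase reporter luminescence driven by COUP-TFII from the pX2-168 reporter plasmid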
T2 sequence (P24468 whole entry): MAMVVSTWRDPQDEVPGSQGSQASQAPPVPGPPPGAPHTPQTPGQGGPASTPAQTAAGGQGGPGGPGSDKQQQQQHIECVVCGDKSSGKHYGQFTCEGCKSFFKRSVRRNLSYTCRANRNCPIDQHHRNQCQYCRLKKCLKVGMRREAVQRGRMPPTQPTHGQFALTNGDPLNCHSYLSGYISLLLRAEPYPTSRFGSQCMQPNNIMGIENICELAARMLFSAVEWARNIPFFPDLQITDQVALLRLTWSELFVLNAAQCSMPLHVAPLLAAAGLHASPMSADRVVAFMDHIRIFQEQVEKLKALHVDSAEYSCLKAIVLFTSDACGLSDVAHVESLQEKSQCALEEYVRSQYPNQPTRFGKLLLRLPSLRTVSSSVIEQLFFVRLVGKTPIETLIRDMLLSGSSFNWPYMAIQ

[9] = blockers of bursicon-stimulated LGR2 cAMP reporter – cell-based, HEK293, CRE-luciferase reporter, cherry pick, set 2, dose response (AID 743343); type: functional;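 also: transfected cells were stimulated with diluted bursicon conditioned medium after compound addition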
[10] = viability loss in HEK293 cells – cell-based, plate reader, cherry-picked samples, cytotoxicity control, dose response (AID 743446); type: functional
[11] = blockade of melanocortin 4 receptor signaling – cell-based, plate reader, cherry pick, counter-screen for LGR2 antagonist project, dose response (AID 743444); type: functional;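 also: transfected HEK 293 cells stimulated with alpha-MSH peptide; potency of inhibitors of the alpha-MSH evoked signal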
[12] = HEK-293T cell viability reduction – luminescence, B-cell screen hits, cytotoxicity control for BCR NF-kB inhibitor project, dose response (AID 489021); type: functional, cell-based;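 also: HEK-293T cells carrying an NF-kB luciferase reporter; cells exposed to compound for about 14 hours before viability readout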
[13] = system: A-375; experiment: proliferation inhibition in MITF-low A375 cells – cell-based, cherry-pick samples, set 2, counter-screen for MITF modulator project, dose response (AID 540335); type: functional; conditions: Homo sapiens
[14] = system: A-375; experiment: MITF: Counter assay: A375 proliferation Measured in Cell-Based System Using Plate Reader - 2084-03_Inhibitor_Dose_DryPowder_Activity. [Related pubchem assays (depositor defined):AID488944]; type: functional; conditions: Homo sapiens
[15] = luciferase reporter signal reduction – luminescence, H4-C neuroglioblastoma cells, dose response (AID 2458); type: functional, cell-based;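 also: H4 neuroglioblastoma cells stably carrying a luciferase reporter gene fusion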
[16] = luciferase reporter signal suppression in cells – H4 neuroglioma cells, luminescence, dose response (AID 1990); type: functional, cell-based
[17] = Luminescence Cell-Based Dose Response HTS to Identify Inhibitors of 5'UTR Stem-Loop Driven Prion Protein mRNA Translation in H4 Neuroglioblastoma Cells. [Related pubchem assays: 1827 (Project Summary), 1813 (Primary HTS)]; type: functional
[18] = alpha-synuclein stem-loop translation blockers – luminescence, H4 neuroglioblastoma cells, dose confirmation, confirmation (AID 2454); type: functional, cell-based;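 also: H4 neuroglioblastoma cells carrying an alpha-synuclein 5'UTR luciferase reporter; potency for inhibition of the luciferase signal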
[19] = cells; type: functional, cell-based
[20] = alpha-synuclein stem-loop luciferase translation blockers – H4 neuroglioma cells, luminescence, confirmation (AID 1988); type: functional, cell-based
[21] = target: T3, Microphthalmia-associated transcription factor (Homo sapiens, UniProt O75030); experiment: reducers of TRPM1 reporter luminescence, concentration series – cell-based, SK-MEL-5, cherry-picked, set 3, MITF inhibitor project, dose response (AID 493073); type: functional;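 also: SK-MEL-5 melanoma cells with luciferase driven by the MITF target TRPM1 promoter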
T3 sequence (O75030 whole entry): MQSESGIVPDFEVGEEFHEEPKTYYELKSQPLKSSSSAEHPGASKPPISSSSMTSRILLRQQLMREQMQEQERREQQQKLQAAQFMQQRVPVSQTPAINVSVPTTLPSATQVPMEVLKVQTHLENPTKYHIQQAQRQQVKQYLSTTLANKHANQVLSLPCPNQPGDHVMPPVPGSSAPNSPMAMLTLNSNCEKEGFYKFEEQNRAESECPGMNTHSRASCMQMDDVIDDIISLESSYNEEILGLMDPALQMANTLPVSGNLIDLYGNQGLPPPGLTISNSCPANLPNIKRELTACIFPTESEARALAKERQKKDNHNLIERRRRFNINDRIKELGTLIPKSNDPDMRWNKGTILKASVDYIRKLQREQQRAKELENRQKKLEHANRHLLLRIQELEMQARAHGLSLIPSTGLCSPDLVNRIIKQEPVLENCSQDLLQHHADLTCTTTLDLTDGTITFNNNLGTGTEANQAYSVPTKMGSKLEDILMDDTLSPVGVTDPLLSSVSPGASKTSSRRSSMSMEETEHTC

[22] = target: Melanin-concentrating hormone receptor 1 (Homo sapiens, UniProt Q99705); experiment: Fluorescence-based counterscreen for antagonists of the G-protein coupled receptor 7 (GPR7): cell-based high throughput dose response assay to identify antagonists of the melanin-concentrating hormone receptor 1 (MCHR1).; type: functional
[23] = target: T4, Neuropeptides B/W receptor type 1 (Homo sapiens, UniProt P48145); experiment: Fluorescence-based dose response cell-based high throughput screening assay to identify antagonists of the G-protein coupled receptor 7 (GPR7). [Related pubchem assays: 1952 (Screening assay (GPR7 antagonists).), 1880 (Summary AID.)]; type: functional
T4 sequence (P48145 whole entry): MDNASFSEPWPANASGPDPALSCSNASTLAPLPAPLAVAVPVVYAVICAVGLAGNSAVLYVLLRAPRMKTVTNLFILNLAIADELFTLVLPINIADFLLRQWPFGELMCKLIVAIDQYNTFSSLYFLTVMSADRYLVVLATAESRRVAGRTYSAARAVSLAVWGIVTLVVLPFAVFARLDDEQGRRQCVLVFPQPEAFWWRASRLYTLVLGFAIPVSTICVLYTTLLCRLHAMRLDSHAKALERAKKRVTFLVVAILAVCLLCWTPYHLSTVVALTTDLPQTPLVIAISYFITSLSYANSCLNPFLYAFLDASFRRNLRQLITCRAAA

[24] = cytotoxicity toward Colo320 cells – cell-based, CellTiter-Glo luminescence, IC50, dose response (AID 1117334); type: functional; conditions: COLO 320
[25] = CellTiter-Glo luminescence survival assay, SW480 colon tumor line, concentration-response curve, half-maximal inhibitory concentration (AID 1117338); type: functional
[26] = cytotoxicity toward HT-29 cells – cell-based, CellTiter-Glo luminescence, IC50, dose response (AID 1117330); type: functional
[27] = RKO cell viability reduction, dose response, CellTiter-Glo luminescence (AID 1117322); type: functional
[28] = SNU-C1 cell viability reduction, dose response, CellTiter-Glo luminescence (AID 1117323); type: functional, cell-based
[29] = cytotoxicity toward HCT116 cells – cell-based, CellTiter-Glo luminescence, IC50, dose response (AID 1117332); type: functional; conditions: HCT-116
[30] = Reduced DLD-1 viability, concentration-response, CellTiter-Glo luminescence (AID 1117352); type: functional

Induced myeloid leukemia cell differentiation protein Mcl-1, sequence (Q07820 whole entry): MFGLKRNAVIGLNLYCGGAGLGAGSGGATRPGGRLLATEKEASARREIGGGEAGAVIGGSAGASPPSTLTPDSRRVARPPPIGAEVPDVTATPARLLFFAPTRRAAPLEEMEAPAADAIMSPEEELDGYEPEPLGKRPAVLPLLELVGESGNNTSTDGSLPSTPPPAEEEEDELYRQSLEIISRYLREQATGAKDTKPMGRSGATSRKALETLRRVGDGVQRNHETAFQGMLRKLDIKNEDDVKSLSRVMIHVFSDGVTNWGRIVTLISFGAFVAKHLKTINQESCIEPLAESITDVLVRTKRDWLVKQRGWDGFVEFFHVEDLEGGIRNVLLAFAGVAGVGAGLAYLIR
Melanin-concentrating hormone receptor 1, sequence (Q99705 whole entry): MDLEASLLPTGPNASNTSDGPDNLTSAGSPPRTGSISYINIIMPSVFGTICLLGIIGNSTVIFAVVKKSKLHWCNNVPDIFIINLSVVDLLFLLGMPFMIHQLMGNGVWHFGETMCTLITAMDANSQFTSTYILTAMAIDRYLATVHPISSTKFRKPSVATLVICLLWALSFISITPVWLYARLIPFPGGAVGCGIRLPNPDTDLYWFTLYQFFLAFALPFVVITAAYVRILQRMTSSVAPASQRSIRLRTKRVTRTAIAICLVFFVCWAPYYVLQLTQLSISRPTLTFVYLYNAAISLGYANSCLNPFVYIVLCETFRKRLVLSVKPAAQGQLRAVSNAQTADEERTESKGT
Bcl-2-like protein 1, sequence (Q07817 whole entry): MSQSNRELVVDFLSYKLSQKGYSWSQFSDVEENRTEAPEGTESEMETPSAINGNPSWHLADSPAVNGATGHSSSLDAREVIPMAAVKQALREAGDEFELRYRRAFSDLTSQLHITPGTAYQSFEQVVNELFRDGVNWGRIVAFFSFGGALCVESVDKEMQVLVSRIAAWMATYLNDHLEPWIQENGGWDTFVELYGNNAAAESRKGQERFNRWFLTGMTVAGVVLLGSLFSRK

With `CNc1ccccc(C(=O)/C=C/c2ccccc2OC)c1=O` the IC50 [1] was > 109 µM (not active), the IC50 [2] was > 109 µM (not active) and the IC50 [3] was 11.5 µM (active).
In the case of `Cc1sc(NC(=O)c2ccco2)c(C(c2cccnc2)N2CCN(c3ccc(F)cc3)CC2)c1C` (stereo not drawn), the EC50 [4] was > 60 µM (not active), the EC50 [5] was 0.385 µM (active) and the EC50 [6] was < 0.1 µM (active).
For `COCCn1c(C)c(C)c2c(NCCc3ccccc3)ncnc21`, the EC50 [7] was < 0.16 µM (active), the IC50 [8] was 40.1 µM (inactive) and the AC50 [9] was 6.87 µM (active). The AC50 [10] was > 52 µM (inactive) and the AC50 [11] was 9.75 µM (active).
With `COc1ccc(CN2CCCC(CO)(Cc3cccc(Cl)c3)C2)cc1OC` (stereo not drawn) the EC50 [4] was > 30 µM (not active), the EC50 [5] was 0.352 µM (active) and the EC50 [6] was < 0.1 µM (active).
In the case of `CC(C)(C)c1ccc(-c2cc(N)[nH]n2)cc1`, the IC50 [12] was > 80 µM (inactive), the AC50 [13] was > 35 µM (active) and the AC50 [14] was > 35 µM (active). The EC50 [15] was 0.403 µM (active), the EC50 [16] was < 0.1 µM (active) and the EC50 [17] was 7.28 µM (active). For the same compound, the EC50 [18] was 0.677 µM (active), the EC50 [19] was 1.34 µM (active) and the EC50 [20] was < 0.1 µM (active). For the same compound, the AC50 [21] was 0.511 µM (active).
With `COc1ccc(S(=O)(=O)N2CCN(CC(=O)Nc3cccc(OC)c3)CC2)cc1` the IC50 [22] was > 43.8 µM (not active) and the IC50 [23] was > 43.8 µM (not active).
In the case of `CCN(CCO)CCCC(C)Nc1ccnc2cc(Cl)ccc12` (stereo not drawn) [HYDROXYCHLOROQUINE SULFATE], the IC50 [24] was > 20 µM (inactive), the IC50 [25] was > 20 µM (inactive) and the IC50 [26] was > 20 µM (inactive). The IC50 [27] was > 20 µM (inactive), the IC50 [28] was > 20 µM (inactive) and the IC50 [29] was > 20 µM (inactive). The IC50 [30] was > 20 µM (inactive).
